Laboratory results published in article PMC8655892 (ACS Omega, 2021).
Structures can show the parent of a compound that is named as a salt. One block for each molecule: values may come before it.

What was measured:
[1] = Metabolic stability in mouse liver microsomes; format: in vitro ADME; conditions: 5 µM, 0.5 mg/mL microsomal protein, NADPH, up to 30 min
[2] = In vivo pharmacokinetics after oral and IV administration; design: species or system Balb/C mice
[3] = Metabolic stability in human liver microsomes; format: in vitro ADME; conditions: 5 µM, 0.5 mg/mL microsomal protein, NADPH, up to 30 min
[4] = Stability of rottlerin in plasma under storage conditions; format: in vitro ADME, mice; conditions: n=4
[5] = Plasma stability in mice plasma; conditions: 0–2 h, 10 µM, 37°C
[6] = Plasma protein binding by rapid equilibrium dialysis; conditions: mouse
[7] = intravenous, 1 mg/kg, Balb/C mice
[8] = male, Balb/C, mouse, plasma, iv, 1 mg/kg
[9] = male, Balb/C, mouse, plasma, po, 4 mg/kg

Compound: CC(=O)c1c(O)c(C)c(O)c(Cc2c(O)c3c(c(C(=O)/C=C/c4ccccc4)c2O)OC(C)(C)C=C3)c1O [Rottlerin]
remained intact in MLMs [1]: > 75% | Cl [2, 7]: 5.83 ± 0.5 mL/min/kg | T1/2 [2, 7]: 2.9 ± 0.8 h | Vd [2, 7]: 1.4 ± 0.4 L/kg | Cl ([2]; intravenous, 1 mg/kg, Balb/C mice, listed as rottlerin): ≤ 17 mL/min/kg | exposure (plasma levels) ([2]; iv, 1 mg/kg, Balb/C mice): ~3000 ng·h/mL | AUC(0-inf) [2, 8]: 2920 ± 292 ng·h/mL | AUC(0-t) [2, 8]: 2850 ± 311 ng·h/mL | C0 [2, 8]: 2110 ± 359 ng/mL | half-life ([2]; male, Balb/C, mouse, plasma, iv, 1 mg/kg, T1/2, intravenous, Balb/C mice): > 2 h | AUC(0-inf) [2, 9]: 4090 ± 348 ng·h/mL | AUC(0-t) [2, 9]: 4050 ± 360 ng·h/mL | Cmax [2, 9]: 660 ± 60 ng/mL | half-life ([2]; male, Balb/C, mouse, plasma, po, 4 mg/kg, T1/2, oral, Balb/C mice): > 2 h | Tmax ([2]; male, Balb/C, mouse, plasma, po, 4 mg/kg, Tmax, Balb/C mice): ~2.4 h | oral bioavailability ([2]; oral 4 mg/kg vs IV 1 mg/kg, Balb/C mice): 35–36% | Cl ([2]; oral, 4 mg/kg, Balb/C mice): 16.8 ± 1.3 mL/min/kg | T1/2 ([2]; oral, 4 mg/kg, Balb/C mice): 2.7 ± 0.4 h | Vd ([2]; oral, 4 mg/kg, Balb/C mice): 3.8 ± 0.6 L/kg | exposure (plasma levels) ([2]; oral, 4 mg/kg, Balb/C mice): around 4 μg h/mL | Cl ([2]; oral, 4 mg/kg, Balb/C mice, listed as rottlerin): ≤ 17 mL/min/kg | remained intact in HLMs [3]: over 91% | stability study accuracy (%) ([4]; autosampler: processed samples, 4 °C, 24 h, HQC 800 ng/mL): 92.89% | stability study accuracy (%) ([4]; autosampler: processed samples, 4 °C, 24 h, LQC 5.7 ng/mL): 90.04% | stability study accuracy (%) ([4]; freeze–thaw: three cycles, −20 °C / room temperature, HQC 800 ng/mL): 91.69% | stability study accuracy (%) ([4]; freeze–thaw: three cycles, −20 °C / room temperature, LQC 5.7 ng/mL): 88.60% | degradation in mice plasma [5]: < 5%

fraction unbound at 4 h, 5 µM [6]: 0.793
Compound: CNC(=C[N+](=O)[O-])NCCSCc1ccc(CN(C)C)o1 [ranitidine, ranitidine hydrochloride]
